Laboratory results from ChEMBL document CHEMBL3792297, “Studies on phenothiazines: New microtubule-interacting compounds with phenothiazine A-ring as potent antineoplastic agents” (Bioorg Med Chem, 2016).

Columns and labels:
Type in all cases: functional
[1] = Growth inhibition of human OVCAR5 cells at 10 uM after 48 hrs by SRB assay relative to control; details: OVCAR-5, 48 h, read-out: GI
ACHN = test: Growth inhibition of human ACHN cells at 10 uM after 48 hrs by SRB assay relative to control; details: read-out: GI
MDA-MB-468 = test: Growth inhibition of human MDA-MB-468 cells at 10 uM after 48 hrs by SRB assay relative to control; details: MDA-MB-468, 48 h, read-out: GI
NCI-H322M = test: Growth inhibition of human NCI-H322M cells at 10 uM after 48 hrs by SRB assay relative to control; details: read-out: GI
T47D = test: Growth inhibition of human T47D cells at 10 uM after 48 hrs by SRB assay relative to control; details: read-out: GI
U-251 = test: Growth inhibition of human U251 cells at 10 uM after 48 hrs by SRB assay relative to control; details: U-251, 48 h, read-out: GI
786-0 = test: Growth inhibition of human 786-0 cells at 10 uM after 48 hrs by SRB assay relative to control; details: 786-0, 48 h, read-out: GI
NCI-H23 = test: Growth inhibition of human NCI-H23 cells at 10 uM after 48 hrs by SRB assay relative to control; details: NCI-H23, 48 h, read-out: GI
MDA-MB-435 = test: Growth inhibition of human MDA-MB-435 cells at 10 uM after 48 hrs by SRB assay relative to control; details: MDA-MB-435, 48 h, read-out: GI
[2] = Growth inhibition of human UACC62 cells at 10 uM after 48 hrs by SRB assay relative to control; details: UACC-62, 48 h, read-out: GI
[3] = Growth inhibition of human HCT116 cells at 10 uM after 48 hrs by SRB assay relative to control; details: HCT-116, 48 h, read-out: GI
[4] = Growth inhibition of human COLO205 cells at 10 uM after 48 hrs by SRB assay relative to control; details: COLO 205, 48 h, read-out: GI
[5] = Growth inhibition of human UO31 cells at 10 uM after 48 hrs by SRB assay relative to control; details: UO-31, 48 h, read-out: GI
SK-MEL-28 = test: Growth inhibition of human SK-MEL-28 cells at 10 uM after 48 hrs by SRB assay relative to control; details: SK-MEL-28, 48 h, read-out: GI
[6] = Growth inhibition of human LOXIMVI cells at 10 uM after 48 hrs by SRB assay relative to control; details: LOX IMVI, read-out: GI
[7] = Growth inhibition of human HOP92 cells at 10 uM after 48 hrs by SRB assay relative to control; details: HOP-92, 48 h, read-out: GI
[8] = Growth inhibition of human HOP62 cells at 10 uM after 48 hrs by SRB assay relative to control; details: HOP-62, 48 h, read-out: GI
A549 = test: Growth inhibition of human A549 cells at 10 uM after 48 hrs by SRB assay relative to control; details: A549, 48 h, read-out: GI
[9] = Growth inhibition of human IGROV1 cells at 10 uM after 48 hrs by SRB assay relative to control; details: IGROV-1, 48 h, read-out: GI
[10] = Growth inhibition of human BT549 cells at 10 uM after 48 hrs by SRB assay relative to control; details: BT-549, 48 h, read-out: GI
[11] = Growth inhibition of human DU145 cells at 10 uM after 48 hrs by SRB assay relative to control; details: DU-145, 48 h, read-out: GI
K562 = test: Growth inhibition of human K562 cells at 10 uM after 48 hrs by SRB assay relative to control; details: K562, 48 h, read-out: GI
[12] = Growth inhibition of human SNB19 cells at 10 uM after 48 hrs by SRB assay relative to control; details: SNB-19, 48 h, read-out: GI
EKVX = test: Growth inhibition of human EKVX cells at 10 uM after 48 hrs by SRB assay relative to control; details: read-out: GI
NCI-H226 = test: Growth inhibition of human NCI-H226 cells at 10 uM after 48 hrs by SRB assay relative to control; details: NCI-H226, 48 h, read-out: GI
[13] = Growth inhibition of human SKOV3 cells at 10 uM after 48 hrs by SRB assay relative to control; details: SK-OV-3, 48 h, read-out: GI
M14 = test: Growth inhibition of human M14 cells at 10 uM after 48 hrs by SRB assay relative to control; details: M14, 48 h, read-out: GI
MCF7 = test: Growth inhibition of human MCF7 cells at 10 uM after 48 hrs by SRB assay relative to control; details: MCF7, 48 h, read-out: GI
NCI-H460 = test: Growth inhibition of human NCI-H460 cells at 10 uM after 48 hrs by SRB assay relative to control; details: NCI-H460, 48 h, read-out: GI
[14] = Growth inhibition of human Caki1 cells at 10 uM after 48 hrs by SRB assay relative to control; details: CAKI-1, 48 h, read-out: GI
[15] = Growth inhibition of human SF295 cells at 10 uM after 48 hrs by SRB assay relative to control; details: SF-295, 48 h, read-out: GI
[16] = Growth inhibition of human HCC2998 cells at 10 uM after 48 hrs by SRB assay relative to control; details: HCC 2998, 48 h, read-out: GI
[17] = Growth inhibition of human OVCAR8 cells at 10 uM after 48 hrs by SRB assay relative to control; details: OVCAR-8, 48 h, read-out: GI
[18] = Growth inhibition of human OVCAR3 cells at 10 uM after 48 hrs by SRB assay relative to control; details: OVCAR-3, 48 h, read-out: GI
[19] = Growth inhibition of human RPMI8226 cells at 10 uM after 48 hrs by SRB assay relative to control; details: RPMI-8226, 48 h, read-out: GI
NCI-H522 = test: Growth inhibition of human NCI-H522 cells at 10 uM after 48 hrs by SRB assay relative to control; details: NCI-H522, 48 h, read-out: GI
SK-MEL-2 = test: Growth inhibition of human SK-MEL-2 cells at 10 uM after 48 hrs by SRB assay relative to control; details: SK-MEL-2, 48 h, read-out: GI
[20] = Growth inhibition of human PC3 cells at 10 uM after 48 hrs by SRB assay relative to control; details: PC-3, 48 h, read-out: GI

| SMILES | inhibition of growth at 10 µM [1] [%] | inhibition of growth at 10 µM (ACHN) [%] | inhibition of growth at 10 µM (MDA-MB-468) [%] | inhibition of growth at 10 µM (T47D) [%] | inhibition of growth at 10 µM (U-251) [%] | inhibition of growth at 10 µM (786-0) [%] | inhibition of growth at 10 µM (NCI-H23) [%] | inhibition of growth at 10 µM [2] [%] | inhibition of growth at 10 µM [3] [%] | inhibition of growth at 10 µM [4] [%] | inhibition of growth at 10 µM [5] [%] | inhibition of growth at 10 µM (SK-MEL-28) [%] | inhibition of growth at 10 µM [6] [%] | inhibition of growth at 10 µM [7] [%] | inhibition of growth at 10 µM [8] [%] | inhibition of growth at 10 µM (A549) [%] | inhibition of growth at 10 µM [9] [%] | inhibition of growth at 10 µM [10] [%] | inhibition of growth at 10 µM [11] [%] | inhibition of growth at 10 µM (K562) [%] | other results |
| --- | --- | --- | --- | --- | --- | --- | --- | --- | --- | --- | --- | --- | --- | --- | --- | --- | --- | --- | --- | --- | --- |
| O=C(c1ccc(Cl)cc1Cl)N1c2ccccc2Sc2ccccc21 | 29 | 39 | 49 | 33 | 67 | 33 | 26 | 57 | 77 | 55 | 35 | 35 | 76 | 28 | 35 | 46 | 39 | 45 | 35 | 100 | inhibition of growth at 10 µM (NCI-H322M): 15%; inhibition of growth at 10 µM (MDA-MB-435): 52%; inhibition of growth at 10 µM [12]: 43%; inhibition of growth at 10 µM (EKVX): 24%; inhibition of growth at 10 µM (NCI-H226): 32%; inhibition of growth at 10 µM [13]: 31%; inhibition of growth at 10 µM (M14): 40%; inhibition of growth at 10 µM (MCF7): 48%; inhibition of growth at 10 µM (NCI-H460): 82%; inhibition of growth at 10 µM [14]: 50%; inhibition of growth at 10 µM [15]: 47%; inhibition of growth at 10 µM [16]: 35%; inhibition of growth at 10 µM [17]: 49%; inhibition of growth at 10 µM [18]: 41%; inhibition of growth at 10 µM [19]: 45%; inhibition of growth at 10 µM (NCI-H522): 36%; inhibition of growth at 10 µM (SK-MEL-2): 21%; inhibition of growth at 10 µM [20]: 56% |
| O=C(c1ccc(F)cc1F)N1c2ccccc2Sc2ccccc21 | 21 | 20 | 64 | 35 | 66 | 26 | 23 | 68 | 73 | 56 | 31 | 41 | 74 | 39 | 33 | 48 | 33 | 43 | 20 | 82 | inhibition of growth at 10 µM (NCI-H322M): 8%; inhibition of growth at 10 µM (MDA-MB-435): 80%; inhibition of growth at 10 µM [12]: 37%; inhibition of growth at 10 µM (EKVX): 20%; inhibition of growth at 10 µM (NCI-H226): 30%; inhibition of growth at 10 µM [13]: 22%; inhibition of growth at 10 µM (M14): 35%; inhibition of growth at 10 µM (MCF7): 48%; inhibition of growth at 10 µM (NCI-H460): 80%; inhibition of growth at 10 µM [14]: 51%; inhibition of growth at 10 µM [15]: 36%; inhibition of growth at 10 µM [16]: 47%; inhibition of growth at 10 µM [17]: 35%; inhibition of growth at 10 µM [18]: 43%; inhibition of growth at 10 µM [19]: 47%; inhibition of growth at 10 µM (NCI-H522): 41%; inhibition of growth at 10 µM (SK-MEL-2): 19%; inhibition of growth at 10 µM [20]: 58% |
| COc1ccc(C(=O)N2c3ccccc3Sc3ccccc32)c(F)c1 | 38 | 52 | 100 | 60 | 66 | 77 | 68 | 77 | 80 | 92 | 51 | 41 | 60 | 58 | 63 | 73 | 45 | 77 | 95 | 87 | inhibition of growth at 10 µM (NCI-H322M): 56%; inhibition of growth at 10 µM (MDA-MB-435): 100%; inhibition of growth at 10 µM [12]: 64%; inhibition of growth at 10 µM (EKVX): 56%; inhibition of growth at 10 µM (NCI-H226): 54%; inhibition of growth at 10 µM [13]: 62%; inhibition of growth at 10 µM (M14): 98%; inhibition of growth at 10 µM (MCF7): 76%; inhibition of growth at 10 µM (NCI-H460): 88%; inhibition of growth at 10 µM [14]: 55%; inhibition of growth at 10 µM [15]: 91%; inhibition of growth at 10 µM [16]: 70%; inhibition of growth at 10 µM [17]: 68%; inhibition of growth at 10 µM [18]: 100%; inhibition of growth at 10 µM [19]: 81%; inhibition of growth at 10 µM (NCI-H522): 99%; inhibition of growth at 10 µM [20]: 70% |
| COc1ccc(C(=O)N2c3ccccc3Sc3ccccc32)cc1F | 57 | 50 | 100 | 49 | 90 | 64 | 86 | 62 | 85 | 100 | 50 | 57 | 64 | 45 | 50 | 83 | 70 | 83 | 95 | 82 | inhibition of growth at 10 µM [12]: 45%; inhibition of growth at 10 µM (EKVX): 59%; inhibition of growth at 10 µM (NCI-H226): 30%; inhibition of growth at 10 µM [13]: 87%; inhibition of growth at 10 µM (M14): 92%; inhibition of growth at 10 µM (MCF7): 82%; inhibition of growth at 10 µM (NCI-H460): 96%; inhibition of growth at 10 µM [14]: 48%; inhibition of growth at 10 µM [15]: 89%; inhibition of growth at 10 µM [16]: 82%; inhibition of growth at 10 µM [17]: 97%; inhibition of growth at 10 µM [18]: 100%; inhibition of growth at 10 µM [19]: 44%; inhibition of growth at 10 µM (NCI-H522): 100%; inhibition of growth at 10 µM (SK-MEL-2): 100%; inhibition of growth at 10 µM [20]: 71% |
